Here are results for two compounds from patent US20070037882A1, “Remedy for cerebral neurodegenerative diseases using ppar agonist” (Astellas Pharma Inc., priority 2003, published 2007).

In data set [1] the test system is SH-SY5Y cells. Description: Thapsigargin-induced cellular death model, viable cells by MTT assay. It counts as cell-based, human. To be noted: for suppression of thapsigargin-induced cellular death (in words): SH-SY5Y; for MTT assay A490: thapsigargin + (100 nM), 24 h. On the procedure: (§1) SH-SY5Y cells were plated on a 96-well plate (70,000 cell/well in 100 μl DMEM low glucose 10% fetal bovine serum) for overnight culturing, from which the culture medium was removed with an aspirator. Then, DMEM without serum was added at 50 μl/well. […] 2 hours later, DMEM without serum containing 600 nM thapsigargin was added at 20 μl/well. (Thapsigargin to a final 100 nM concentration) (For a control, DMEM without serum alone was added.) 24 hours later, the viable cell count was calculated from the absorbance at 490 nm, using Celltiter 96 Aqueous one solution cell proliferaion assay kit (Promega).
Background: Tetrazolium dyes change colour on reduction, which living cells bring about.

The test system of data set [2] is SH-SY5Y cells. The data set is described as follows: Staurosporine-induced cellular death model, viable cells by MTT assay. To be noted: for suppression of staurosporine-induced cellular death (in words): SH-SY5Y; for MTT assay A490: staurosporine + (150 nM), 24 h. It counts as cell-based, human. How it is done: as §1, with “Cellular death was induced by adding a protein kinase inhibitor staurosporine to a neuroblastoma SH-SY5Y to examine the effect of PPARδ agonists on the suppression of cellular death. SH-SY5Y” for “SH-SY5Y”, “containing 900” for “containing 600”, “nM staurosporine” for “nM thapsigargin”, “μl/well. (Staurosporine” for “μl/well. (Thapsigargin”, “final 150” for “final 100”, “cell proliferation” for “cell proliferaion”

Data set [3] relates to SH-SY5Y cells. The data set is described as follows: MPP+-induced cellular death model, apoptosis by caspase-3/7 assay. It counts as cell-based, human. To be noted: for suppression of caspase-3/7 activity (in words): SH-SY5Y, MPP+; for Caspase 3/7 activity: MPP+ + (3 mM), 3 h. How it is done:
SH-SY5Y cells were spread on a 96-well plate (70,000 cell/well in 100 μl DMEM low glucose 10% fetal bovine serum) for overnight culturing, from which the culture medium was removed with an aspirator. Then, DMEM without serum was added at 50 μl/well. […] 2 hours later, DMEM without serum containing 18 mM MPP^+ was added at 20 μl/well. (MPP^+ to a final 3 mM concentration.) (For control, DMEM without serum alone was added.)
3 hours later, the caspase-3/7 activity was assayed with Apo-One homogenous Caspase-3/7 assay kit (Promega).

Data set [4] concerns GAL4-murine PPARα fusion protein. The data set is described as follows: GAL4 reporter gene assay in CV-1 cells, murine PPARα. It counts as cell-based. The conditions noted are these: first 'Murine PPAR-•' line (taken as α), pG5luc reporter. In general terms: A reporter such as luciferase makes a cellular process visible.
Data set [5] concerns GAL4-human PPARγ fusion protein. Description: GAL4 reporter gene assay in CV-1 cells, human PPARγ. It counts as cell-based. To be noted: second 'Human PPAR-•' line (taken as γ), pG5luc reporter.
The test system of data set [6] is GAL4-human PPARα fusion protein. The data set is described as follows: GAL4 reporter gene assay in CV-1 cells, human PPARα. It counts as cell-based. The conditions noted are these: first 'Human PPAR-•' line (taken as α), pG5luc reporter.
Data set [7] has as its target T1, PPARγ (Homo sapiens, UniProt P37231).
T1 sequence (P37231 1-505): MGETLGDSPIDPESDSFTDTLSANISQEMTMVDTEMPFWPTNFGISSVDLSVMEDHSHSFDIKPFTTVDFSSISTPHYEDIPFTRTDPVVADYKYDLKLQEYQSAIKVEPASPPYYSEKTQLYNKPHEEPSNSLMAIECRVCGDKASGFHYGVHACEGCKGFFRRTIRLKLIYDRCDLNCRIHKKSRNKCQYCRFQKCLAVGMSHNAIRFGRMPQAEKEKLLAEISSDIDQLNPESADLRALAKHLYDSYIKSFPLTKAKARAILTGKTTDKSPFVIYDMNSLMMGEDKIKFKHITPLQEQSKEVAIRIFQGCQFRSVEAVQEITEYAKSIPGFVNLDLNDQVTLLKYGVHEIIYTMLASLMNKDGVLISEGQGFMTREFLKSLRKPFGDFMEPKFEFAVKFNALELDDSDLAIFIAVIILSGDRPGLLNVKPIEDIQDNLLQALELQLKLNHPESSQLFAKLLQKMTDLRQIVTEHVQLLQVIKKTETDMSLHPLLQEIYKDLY
The conditions noted are these: FEBS Letters 473 (2000) 333-336; read-out: affinity to PPARγ (Ki); cited from earlier work.

Data set [8] deals with T2, PPARδ (Homo sapiens, UniProt Q03181).
T2 sequence (Q03181 1-441): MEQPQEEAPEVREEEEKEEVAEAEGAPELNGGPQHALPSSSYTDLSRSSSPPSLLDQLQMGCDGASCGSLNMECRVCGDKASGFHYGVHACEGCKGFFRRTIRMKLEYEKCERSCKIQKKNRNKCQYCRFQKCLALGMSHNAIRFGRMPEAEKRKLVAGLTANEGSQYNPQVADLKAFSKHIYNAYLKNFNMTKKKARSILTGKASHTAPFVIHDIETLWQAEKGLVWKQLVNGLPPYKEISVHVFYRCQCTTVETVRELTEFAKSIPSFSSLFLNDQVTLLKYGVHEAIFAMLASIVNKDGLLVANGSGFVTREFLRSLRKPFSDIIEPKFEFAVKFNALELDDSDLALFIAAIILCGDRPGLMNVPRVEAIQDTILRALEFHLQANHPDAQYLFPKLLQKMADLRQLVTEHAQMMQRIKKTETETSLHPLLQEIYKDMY
The conditions noted are these: FEBS Letters 473 (2000) 333-336; read-out: affinity to PPARδ (Ki); cited from earlier work.

In data set [9] the test system is GAL4-human PPARδ fusion protein. The data set is described as follows: GAL4 reporter gene assay in CV-1 cells, human PPARδ. It counts as cell-based. To be noted: third 'Human PPAR-•' line (taken as δ), pG5luc reporter.
Data set [10] relates to GAL4-murine PPARδ fusion protein. To be noted: third 'Murine PPAR-•' line (taken as δ); CV-1 cells, pG5luc reporter.
Data set [11] concerns GAL4-murine PPARγ fusion protein. Description: GAL4 reporter gene assay in CV-1 cells, murine PPARγ. It counts as cell-based. The conditions noted are these: second 'Murine PPAR-•' line (taken as γ), pG5luc reporter.

Structures are written as SMILES. Some results are limits rather than exact numbers.

`Cc1cc(SCc2sc(-c3ccc(C(F)(F)F)cc3)nc2C)ccc1OCC(=O)O` [GW501516]: the “suppression of thapsigargin-induced cellular death (in words)” value in [1] is “suppressed cellular death induced by thapsigargin (TG) in a concentration-dependent manner”. For the same compound, the “MTT assay A490” value in data set [1] (compound 0.1 μM) is on record as 0.2978 ± 0.0096; in data set [1] (compound 1 μM) it was 0.3150 ± 0.0135; in data set [1] (compound 10 μM), 0.3478 ± 0.0110; in data set [1] (compound 100 μM), 0.2950 ± 0.0033; in data set [2] (compound 0.1 μM) it was 0.5179 ± 0.0140; in [2] (compound 1 μM), 0.5367 ± 0.0149. Besides, the “MTT assay A490” value in [2] (compound 10 μM) was determined as 0.5860 ± 0.0086. Also, the “cellular toxicity (in words)” value in [1] (concentration of 100 μM, thapsigargin model) is “cellular toxicity of GW501516 can be observed”. Also, in data set [2], the “suppression of staurosporine-induced cellular death (in words)” value is “suppression of staurosporine-induced cellular death in a concentration-dependent manner”. In [3], the “suppression of caspase-3/7 activity (in words)” value was “suppress the activity of caspase-3/7 in a concentration-dependent manner”. Also, the “Caspase 3/7 activity” value is given as 847552 ± 36575 RFLU in data set [3] (compound 0.1 μM), 621059 ± 26590 RFLU in data set [3] (compound 1 μM), 798646 ± 54365 RFLU in data set [3] (compound 10 μM) and 398604 ± 55698 RFLU in data set [3] (compound 100 μM).
With `CCCc1c(OCCCOc2ccc(OCC(=O)O)cc2)ccc(C(C)=O)c1O` [L-165041, 4-[3-[2-propyl-3-hydroxy-4-acetyl]phenoxy]propyloxyphenoxy acetic acid], the “Concentration for action exertion” value in [4] was more than 100 M; in data set [5], 10 M; in data set [6] it was 10 M; in data set [9], 0.1 M; in [10], 0.1 M; in [11], 10 M. In data set [1], the “suppression of thapsigargin-induced cellular death (in words)” value is “suppressed cellular death induced by thapsigargin (TG) in a concentration-dependent manner”. Also, the “MTT assay A490” value turned out to be 0.2176 ± 0.0036 in data set [1] (compound 0.1 μM); 0.2158 ± 0.0034 in data set [1] (compound 1 μM); 0.2436 ± 0.0015 in [1] (compound 10 μM); 0.4405 ± 0.0065 in data set [1] (compound 100 μM); 0.5523 ± 0.0209 in [2] (compound 0.1 μM); 0.5532 ± 0.0056 in data set [2] (compound 1 μM). Besides, the “MTT assay A490” value in data set [2] (compound 10 μM) is given as 0.5167 ± 0.0098. Further, the Ki in data set [7] is 730 nM; in data set [8] it was 6 nM. Also, the “suppression of staurosporine-induced cellular death (in words)” value in [2] is reported as “suppression of staurosporine-induced cellular death in a concentration-dependent manner”. For the same compound, in data set [3], the “suppression of caspase-3/7 activity (in words)” value was “suppress the activity of caspase-3/7 in a concentration-dependent manner”. Besides, the “Caspase 3/7 activity” value is listed as 1430206 ± 30804 RFLU in [3] (compound 0.1 μM), 1168920 ± 30554 RFLU in [3] (compound 1 μM), 646736 ± 26366 RFLU in data set [3] (compound 10 μM) and 572152 ± 33695 RFLU in data set [3] (compound 100 μM).

What is called Ki is a measure of affinity in units of concentration, obtained from inhibition or displacement.
